{"source": "patent US11504399B2", "about": "“Combination therapy for a stable and long term engraftment using specific protocols for T/B cell depletion” (Yeda Research and Development Co. Ltd., priority 2011, dated 2022)", "key": {"[1]": {"tested_on": "allogeneic recipients (C3H/Hen) of Balb/c-Nude BM cells", "conditions": "for donor type chimerism expressed: regular dose 5×10^6 T cell depleted BM, TCD, monohydrate", "source_text": "Mice used in these studies were 6-12 week old female mice. Balb/c-Nude (H-2d) and C3H/Hen (H-2k) were purchased from Harlan Israel (Rehovot, Israel). All mice were kept in small cages (5 animals in each cage) and fed sterile food and acid water. These studies were approved by the Weizmann Institute of Science, Institutional Animal Care and Use Committee.\n(§1) Low (5×10^6) and high dose (25×10^6) Balb/c-Nude BM cells (providing a source of BM depleted of T cells) were transplanted into allogeneic recipients (C3H/Hen) on day 0 following in-vivo T cell debulking (TCD) with anti-CD4 (clone GK1.5) and anti-CD8 (clone 53.6.72) antibodies (300 μg each; Bio X Cell, NH, USA) delivered on day −6, and exposure to 2.0 Gy total body irradiation (TBI) on day −1. High dose Cyclophosphamide (CY, 100 mg/kg, Baxter Oncology, Germany) was administered on days +3 and +4 post transplant and donor type chimerism was evaluated 35 and 95 days post transplant using fluorescein anti-host and donor H-2 antibodies (e.g. FlTC labeled anti-H-2D^d antibody specific for donor type cells and PE labeled anti-H-2K^k antibody specific for host type cells).\nRecipient mice (C3H/Hen) were treated with a conditioning protocol prior to transplantation of a T cell depleted bone marrow transplant. Specifically, mice were in-vivo treated with T cell debulking (TCD) using anti-CD4 and anti-CD8 antibodies delivered on day −6 and by exposure to 2.0 Gy total body irradiation (TBI) on day −1. Next, low (5×10^6) or high dose (25×10^6) Balb/c-Nude BM cells (providing a source of BM depleted of T cells, as Nude mice have miniscule numbers of mature T cells) were transplanted into allogeneic recipients (C3H/Hen) on day 0. High dose cyclophosphamide (CY, 100 mg/kg) was administered on days +3 and +4 post transplant. Evaluation of bone marrow cell engraftment was evaluated by donor type chimerism at 35 and 95 days post transplant.\nas §1, with “High” for “Low (5×10^6) and high”, “different doses of irradiation ranging from 1 to 3.5” for “2.0”, “TBI” for “total body irradiation (TBI)”, “30” for “35 and 95”\nHigh dose Cyclophosphamide (CY) was administered on days +3 and +4 post transplant and donor type chimerism was evaluated at 30 days post transplant.\nas §1, with “High dose” for “Low (5×10^6) and high dose”, “−1. Different doses of” for “−1. High dose”, “mg/kg, 125 mg/kg or 150 mg/kg,” for “mg/kg,”, “Germany) were” for “Germany) was”, “evaluated 30” for “evaluated 35 and 95”"}, "[2]": {"tested_on": "C3H/Hen recipient mice with Balb/c and C57BL/6 skin grafts", "protocol": "Donor (Balb/c) and 3rd party (C57BL/6) skin grafts were transplanted to the mixed chimeric recipients as described above [i.e. to those mice which were previously transplanted with mega dose (25×10^6) T cell depleted BM and were treated with high dose CY] and to the recipient mice that were inoculated with a regular (5×10^6) T cell depleted BM cell dose and were treated with high dose CY.\nTolerance induction was measured by transplantation of donor (Balb/c) and 3rd party (C57BL/6) skin grafts to the mixed chimeric recipients that were transplanted with mega dose (25×10^6) T cell depleted BM and were treated with high dose CY (as described above), in comparison to the recipients that were inoculated with a regular (5×10^6) T cell depleted BM cell dose (as described above)."}}, "note": "Where two headings read alike, the source gives them in different places."}
{"smiles": "O.O=P1(N(CCCl)CCCl)NCCCO1", "note": "(stereo not drawn) [CY, 2-[bis(2-chloroethyl)amino]tetrahydro-2H-1,3,2-oxazaphosphorine 2-oxide monohydrate]", "values": [{"measurement": "mixed chimerism", "setting": "[1]; 5×10^6 T cell depleted BM and CY, 180 and 225 days post transplant", "result": "did not exhibit mixed chimerism"}, {"measurement": "percentage of chimeric mice", "setting": "[1]; 25×10^6 BM, 1.0 Gy TBI, CY 100 mg/kg days +3 and +4, 30 days post transplant (5/6)", "result": 83, "unit": "%"}, {"measurement": "percentage of chimeric mice", "setting": "[1]; 25×10^6 BM, 2 Gy TBI, CY 100 mg/kg days +3 and +4, 30 days post transplant (13/15)", "result": 87, "unit": "%"}, {"measurement": "chimeric recipient mice", "setting": "[1]; 25×10^6 BM, 2.5, 3 or 3.5 Gy TBI, CY 100 mg/kg days +3 and +4, 30 days post transplant", "result": "6/6"}, {"measurement": "effect of depletion of CD8+ cells from the BM preparation on level of chimerism", "setting": "[1]; 25×10^6 CD8 depleted vs non-depleted Balb/c-Nude BM, 2 Gy TBI, CY 100 mg/kg days +3 and +4, 30 days", "result": "did not have any adverse impact"}, {"measurement": "number of donor type chimeric recipients and level of donor chimerism", "setting": "[1]; 25×10^6 T cell depleted BM and CY, follow-up 180 and 225 days post transplant", "result": "remained unchanged"}, {"measurement": "mice with durable mix chimerism", "setting": "[1]; 25×10^6 T cell depleted BM, TCD day −6, 2 Gy TBI day −1, CY 100 mg/kg days +3 and +4, day 35 and day 95", "result": "4 out of 7"}, {"measurement": "effect of increasing CY dose on chimerism", "setting": "[1]; CY 125 mg/kg or 150 mg/kg compared to 100 mg/kg, 25×10^6 BM, 2 Gy TBI, 30 days", "result": "did not provide a significant enhancement of chimerism"}, {"measurement": "donor type chimerism expressed", "setting": "[1]; 2 Gy TBI, CY 100 mg/kg days +3 and +4, day 35 and day 95, listed as cyclophosphamide", "result": "none"}, {"measurement": "donor type chimerism expressed", "setting": "[1]; 2 Gy TBI, CY 100 mg/kg days +3 and +4, day 35 and day 95", "result": "did not exhibit donor type chimerism"}, {"measurement": "skin graft outcome", "setting": "[2]; 5×10^6 T cell depleted BM cells and CY", "result": "rejected both the donor and 3rd party skin grafts"}, {"measurement": "chimeric mice that accepted the donor graft and rejected the 3rd party skin grafts", "setting": "[2]; 25×10^6 T cell depleted BM, high dose CY days +3 and +4", "result": "three out of 4"}]}
